According to ChEMBL document CHEMBL1135425, “Antitumor agents. 213. Modeling of epipodophyllotoxin derivatives using variable selection k nearest neighbor QSAR method” (J Med Chem, 2002):
“And” between values parts separate entries of the source, which are not always exact repeats. Equal entries are not always repeated.

Biological target: DNA topoisomerase II (Homo sapiens) (UniProt P11388+Q02880)
Experiment: Percentage of intracellular covalent DNA-topoisomerase II complexes formed
Format: cell-based

In order of falling Complex formation:
1. COc1cc([C@@H]2c3cc4c(cc3[C@@H](Nc3ccc(N)cc3)[C@H]3COC(=O)[C@H]23)OCO4)cc(OC)c1O  330%
2. COc1cc([C@@H]2c3cc4c(cc3[C@@H](Nc3ccccc3)[C@H]3COC(=O)[C@H]23)OCO4)cc(OC)c1O  243%
3. COc1cc([C@@H]2c3cc4c(cc3[C@@H](Nc3cccc(CO)c3)[C@H]3COC(=O)[C@H]23)OCO4)cc(OC)c1O  235%
4. COc1cc([C@@H]2c3cc4c(cc3[C@@H](Nc3cccc([N+](=O)[O-])c3)[C@H]3COC(=O)[C@H]23)OCO4)cc(OC)c1O  230%
5. COc1cc([C@@H]2c3cc4c(cc3[C@@H](NCc3cccc(C#N)c3)[C@H]3COC(=O)[C@H]23)OCO4)cc(OC)c1O  225%
6. COc1cc([C@@H]2c3cc4c(cc3[C@@H](Nc3ccc(F)cc3)[C@H]3COC(=O)[C@H]23)OCO4)cc(OC)c1O  213%
7. COC(=O)c1ccc(N[C@@H]2c3cc4c(cc3[C@@H](c3cc(OC)c(O)c(OC)c3)[C@H]3C(=O)OC[C@@H]32)OCO4)cc1  207%
8. COc1ccc(N[C@@H]2c3cc4c(cc3[C@@H](c3cc(OC)c(O)c(OC)c3)[C@H]3C(=O)OC[C@@H]32)OCO4)cc1OC  180%
9. COc1cc([C@@H]2c3cc4c(cc3[C@@H](NC(=O)c3ccccc3)[C@H]3COC(=O)[C@H]23)OCO4)cc(OC)c1O  177%
10. COC(=O)c1ccc(NC2c3cc4c(cc3[C@@H](c3cc(O)c(O)c(OC)c3)[C@H]3C(=O)OC[C@H]23)OCO4)cc1 (stereo partly specified)  175%
11. COc1cc([C@@H]2c3cc4c(cc3[C@@H](N[C@H](C)CO)[C@H]3COC(=O)[C@H]23)OCO4)cc(OC)c1O  162%
12. COc1cc([C@@H]2c3cc4c(cc3[C@@H](NC(=O)c3ccc([N+](=O)[O-])cc3)[C@H]3COC(=O)[C@H]23)OCO4)cc(OC)c1O  160%
13. COc1cc([C@@H]2c3cc4c(cc3[C@@H](NC(=O)c3ccccc3O)[C@H]3COC(=O)[C@H]23)OCO4)cc(OC)c1O  160%
14. COc1cc([C@@H]2c3cc4c(cc3[C@@H](NCc3cccc(Cl)c3)[C@H]3COC(=O)[C@H]23)OCO4)cc(OC)c1O  159%
15. COc1cc([C@@H]2c3cc4c(cc3[C@@H](Nc3ccccc3O)[C@H]3COC(=O)[C@H]23)OCO4)cc(OC)c1O  151%
16. COc1cc([C@@H]2c3cc4c(cc3C(Nc3ccc(C(C)=O)cc3)[C@H]3COC(=O)[C@H]23)OCO4)cc(O)c1O (stereo partly specified)  147%
17. COc1cc(CN[C@@H]2c3cc4c(cc3[C@@H](c3cc(OC)c(O)c(OC)c3)[C@H]3C(=O)OC[C@@H]32)OCO4)cc(OC)c1  144%
18. COc1cc([C@@H]2c3cc4c(cc3[C@@H](NC(=O)NCCCl)[C@H]3COC(=O)[C@H]23)OCO4)cc(OC)c1O  143%
19. COc1cc([C@@H]2c3cc4c(cc3[C@@H](Nc3cccc(N)c3)[C@H]3COC(=O)[C@H]23)OCO4)cc(OC)c1O  140%
20. COc1cc([C@@H]2c3cc4c(cc3[C@@H](Nc3ccc(N5CCOCC5)cc3)[C@H]3COC(=O)[C@H]23)OCO4)cc(OC)c1O  140%
21. COc1cc([C@@H]2c3cc4c(cc3[C@@H](Nc3cccc(C#N)c3)[C@H]3COC(=O)[C@H]23)OCO4)cc(OC)c1O  137%
22. COc1cc([C@@H]2c3cc4c(cc3[C@@H](NCc3cccc([N+](=O)[O-])c3)[C@H]3COC(=O)[C@H]23)OCO4)cc(OC)c1O  130%
23. COc1cc([C@@H]2c3cc4c(cc3[C@@H](NC(=O)c3ccccc3F)[C@H]3COC(=O)[C@H]23)OCO4)cc(OC)c1O  128%
24. COc1cc([C@@H]2c3cc4c(cc3[C@@H](Nc3ccc(-c5nc6ccccc6[nH]5)cc3)[C@H]3COC(=O)[C@H]23)OCO4)cc(OC)c1O  128%
25. CCOC(=O)c1ccc(NC2c3cc(OC)c(OC)cc3[C@@H](c3cc(OC)c(O)c(OC)c3)[C@H]3C(=O)OC[C@H]23)cc1 (stereo partly specified)  127%
26. COc1cc([C@@H]2c3cc4c(cc3[C@@H](NC(=O)Nc3ccc(Cl)cc3)[C@H]3COC(=O)[C@H]23)OCO4)cc(OC)c1O  125%
27. COc1cc([C@@H]2c3cc4c(cc3[C@@H](NCCO)[C@H]3COC(=O)[C@H]23)OCO4)cc(OC)c1O  121%
28. COc1cc([C@@H]2c3cc4c(cc3[C@@H](NC(=O)c3ccc(N)cc3)[C@H]3COC(=O)[C@H]23)OCO4)cc(OC)c1O  120%
29. COc1cc([C@@H]2c3cc4c(cc3C(Nc3ccc(F)cc3)[C@H]3COC(=O)[C@H]23)OCO4)cc(O)c1O (stereo partly specified)  117%
30. COc1cc([C@@H]2c3cc4c(cc3[C@@H](NC(=O)c3cccc(F)c3)[C@H]3COC(=O)[C@H]23)OCO4)cc(OC)c1O  116%
31. COc1cc([C@@H]2c3cc4c(cc3[C@@H](Nc3cc(F)cc(F)c3)[C@H]3COC(=O)[C@H]23)OCO4)cc(OC)c1O  115%
32. COCCN[C@@H]1c2cc3c(cc2[C@@H](c2cc(OC)c(O)c(OC)c2)[C@H]2C(=O)OC[C@@H]21)OCO3  111%
33. COc1cc([C@@H]2c3cc4c(cc3[C@@H](NC(C)C)[C@H]3COC(=O)[C@H]23)OCO4)cc(OC)c1O  109%
34. COc1cc([C@@H]2c3cc4c(cc3[C@@H](O[C@@H]3O[C@@H]5CO[C@@H](C)O[C@H]5[C@H](O)[C@H]3O)[C@H]3COC(=O)[C@H]23)OCO4)cc(OC)c1O  100%
35. COc1cc([C@@H]2c3cc4c(cc3[C@@H](Nc3ccc(Oc5ccccc5)cc3)[C@H]3COC(=O)[C@H]23)OCO4)cc(OC)c1O  97%
36. COc1ccc(NC2c3cc4c(cc3[C@@H](c3cc(O)c(O)c(OC)c3)[C@H]3C(=O)OC[C@H]23)OCO4)cc1 (stereo partly specified)  96%
37. COc1cc([C@@H]2c3cc4c(cc3[C@@H](OC(=O)c3ccc(N)cc3)[C@H]3COC(=O)[C@H]23)OCO4)cc(OC)c1O  94%
38. C=CCN[C@@H]1c2cc3c(cc2[C@@H](c2cc(OC)c(O)c(OC)c2)[C@H]2C(=O)OC[C@@H]21)OCO3  84.1%
39. CNC(=O)N[C@@H]1c2cc3c(cc2[C@@H](c2cc(OC)c(O)c(OC)c2)[C@H]2C(=O)OC[C@@H]21)OCO3  81%
40. COc1cc([C@@H]2c3cc4c(cc3C(Nc3ccc(Cl)cc3)[C@H]3COC(=O)[C@H]23)OCO4)cc(O)c1O (stereo partly specified)  77%
41. COc1cc2c(cc1OC)[C@@H](c1cc(OC)c(O)c(OC)c1)[C@H]1C(=O)OC[C@@H]1C2Nc1ccc([N+](=O)[O-])cc1 (stereo partly specified)  75%
42. COc1cc([C@@H]2c3cc4c(cc3C(Nc3cccc([N+](=O)[O-])c3)[C@H]3COC(=O)[C@H]23)OCO4)cc(O)c1O (stereo partly specified)  75%
43. CCCN[C@@H]1c2cc3c(cc2[C@@H](c2cc(OC)c(O)c(OC)c2)[C@H]2C(=O)OC[C@@H]21)OCO3  69.7%
44. COc1cc([C@@H]2c3cc4c(cc3[C@@H](Nc3ccc(I)cc3)[C@H]3COC(=O)[C@H]23)OCO4)cc(OC)c1O  64%
45. COc1cc([C@@H]2c3cc(O)c(O)cc3C(Nc3ccc(F)cc3)[C@H]3COC(=O)[C@H]23)cc(OC)c1O (stereo partly specified)  52%
46. COc1cc([C@@H]2c3cc4c(cc3[C@@H](O)[C@H]3COC(=O)[C@H]23)OCO4)cc(OC)c1O  42.2%
47. COc1cc([C@@H]2c3cc4c(cc3[C@@H](Oc3ccc(O)cc3)[C@H]3COC(=O)[C@H]23)OCO4)cc(OC)c1O  34%
48. COc1cc([C@@H]2c3cc4c(cc3[C@@H](Nc3ccccc3Cl)[C@H]3COC(=O)[C@H]23)OCO4)cc(OC)c1O  32%
49. COc1cc([C@@H]2c3cc4c(cc3[C@@H](Nc3ccc(NC(=O)c5cc(NC(=O)c6cc([N+](=O)[O-])cn6C)cn5C)cc3)[C@H]3COC(=O)[C@H]23)OCO4)cc(OC)c1O  26%
50. COc1cc([C@@H]2c3cc(O)c(O)cc3[C@@H](Nc3ccc([N+](=O)[O-])cc3)[C@H]3COC(=O)[C@H]23)cc(OC)c1OC  23%
51. CCOC(=O)c1ccc(NC2c3cc(O)c(O)cc3[C@@H](c3cc(OC)c(OC)c(OC)c3)[C@H]3C(=O)OC[C@H]23)cc1 (stereo partly specified)  22%
52. COc1cc([C@@H]2c3cc4c(cc3[C@@H](Nc3cc(C(F)(F)F)cc(C(F)(F)F)c3)[C@H]3COC(=O)[C@H]23)OCO4)cc(OC)c1O  21%
53. COc1cc([C@@H]2c3cc(O)c(O)cc3[C@@H](Nc3cccc(O)c3)[C@H]3COC(=O)[C@H]23)cc(OC)c1O  18%
54. COc1cc([C@@H]2c3cc4c(cc3[C@@H](Nc3cc([N+](=O)[O-])ccc3O)[C@H]3COC(=O)[C@H]23)OCO4)cc(OC)c1O  15%
55. COc1cc2c(cc1OC)[C@@H](c1cc(OC)c(OC)c(OC)c1)[C@H]1C(=O)OC[C@@H]1C2Nc1ccc(C#N)cc1 (stereo partly specified)  12%
56. COc1ccc([N+](=O)[O-])cc1N[C@@H]1c2cc3c(cc2[C@@H](c2cc(OC)c(O)c(OC)c2)[C@H]2C(=O)OC[C@@H]21)OCO3  12%
57. COc1cc([C@@H]2c3cc(O)c(O)cc3C(Nc3ccc(F)cc3)[C@H]3COC(=O)[C@H]23)cc(OC)c1OC (stereo partly specified)  11%
58. COc1cc([C@@H]2c3cc4c(cc3[C@@H](Nc3cc(N)ccc3O)[C@H]3COC(=O)[C@H]23)OCO4)cc(OC)c1O  11%
59. COc1cc2c(cc1OC)[C@@H](c1cc(OC)c(OC)c(OC)c1)[C@H]1C(=O)OC[C@@H]1C2Nc1ccc(F)cc1 (stereo partly specified)  8%
60. COc1cc2c(cc1OC)[C@@H](Nc1ccc([N+](=O)[O-])cc1)[C@H]1COC(=O)[C@@H]1[C@@H]2c1cc(OC)c(OC)c(OC)c1  8%
61. COC1=CC([C@@H]2c3cc4c(cc3C(NC(=O)N(CCCl)N=O)[C@H]3COC(=O)[C@H]23)OCO4)=CC(=O)C1=O (stereo partly specified)  7%
62. COc1cc([N+](=O)[O-])c(OC)cc1N[C@@H]1c2cc3c(cc2[C@@H](c2cc(OC)c(O)c(OC)c2)[C@H]2C(=O)OC[C@@H]21)OCO3  4.4%
63. COc1cc([C@@H]2c3cc(O)c(O)cc3[C@@H](Nc3cccc(O)c3)[C@H]3COC(=O)[C@H]23)cc(OC)c1OC  4%
64. COc1cc([C@@H]2c3cc(O)c(O)cc3[C@@H](Nc3ccccc3)[C@H]3COC(=O)[C@H]23)cc(OC)c1O  4%
65. COc1cc(N[C@@H]2c3cc4c(cc3[C@@H](c3cc(OC)c(O)c(OC)c3)[C@H]3C(=O)OC[C@@H]32)OCO4)c(C)cc1[N+](=O)[O-]  3.5%

`COc1cc([C@@H]2c3cc4c(cc3[C@@H](NCCCN(C)C)[C@H]3COC(=O)[C@H]23)OCO4)cc(OC)c1O` was tested, and the Complex formation was 179% and 186%.
